The values below come from ChEMBL document CHEMBL1122602, “2-Acetylpyridine thiosemicarbazones. 8. Derivatives of 1-acetylisoquinoline as potential antimalarial agents” (1984).

What all share (assay type): functional
Experiment [1] concerns Mus musculus. As to the kind of experiment: Antimalarial activity was assessed against Plasmodium berghei in mice (Mus musculus) at 640 mg/kg dosage of the compound; Toxic.
For experiment [2], the system named is Mus musculus. Briefly: Antimalarial activity was assessed against Plasmodium berghei in mice (Mus musculus) at 160 mg/kg dosage of the compound; Toxic.
Experiment [3] deals with Mus musculus. Briefly: Antimalarial activity was assessed against Plasmodium berghei in mice (Mus musculus) at 320 mg/kg dosage of the compound; Toxic.
Experiment [4] deals with Mus musculus. Briefly: Antimalarial activity was assessed against Plasmodium berghei in mice (Mus musculus) at 640 mg/kg dosage of the compound: Toxic.
The test system of experiment [5] is Mus musculus. Briefly: Antimalarial activity was assessed against Plasmodium berghei in mice (Mus musculus). at 320 mg/kg dosage of the compound; Toxic.

Take `CC(N/N=C(\S)N(C)C1CCCCC1)c1nccc2ccccc12` (stereo unspecified): the toxic deaths in the experiment with Mus musculus [1] came out at 3 count; in the experiment on Mus musculus [2], 2 count; in the experiment on Mus musculus [3], 3 count.

As for `C/C(=N\N=C(/S)N1CCCC1)c1nccc2ccccc12`, the toxic deaths in the experiment with Mus musculus [1] is 5 count.

Regarding `CC(N/N=C(\S)N1CCN(c2ccccn2)CC1)c1nccc2ccccc12` (stereo unspecified), the toxic deaths with Mus musculus [1] came to 1 count; in the experiment with Mus musculus [3], 2 count.

As to `C/C(=N\N=C(/S)N1CC(C)OC(C)C1)c1nccc2ccccc12` (stereo unspecified), the results for the toxic deaths in the experiment on Mus musculus [1] and with Mus musculus [3] were 2 count and 1 count, respectively.

Consider `C/C(=N\N=C(/S)N(C)C)c1nccc2ccccc12`, for which the toxic deaths with Mus musculus [1] and in the experiment on Mus musculus [3] was 5 count in each case.

For `C/C(=N\N=C(/S)N1CCCCCC1)c1nccc2ccccc12`, the toxic deaths with Mus musculus [1] worked out at 4 count.

As to `C/C(=N\N=C(/S)N1CCC(C)CC1)c1nccc2ccccc12`, the toxic deaths in the experiment with Mus musculus [4] turned out to be 5 count; with Mus musculus [2], 1 count; in the experiment with Mus musculus [3] it was 5 count.

On to `CC1CN(/C(S)=N/NC(C)c2nccc3ccccc23)CC(C)O1` (stereo unspecified), for which the toxic deaths with Mus musculus [5] and in the experiment on Mus musculus [1] was 1 count in each case.

Consider `CC1CCN(/C(S)=N/NC(C)c2nccc3ccccc23)CC1` (stereo unspecified), for which the toxic deaths in the experiment with Mus musculus [1] and in the experiment on Mus musculus [3] was 5 count each time.

Take `CC(N/N=C(\S)N1CCCCCC1)c1nccc2ccccc12` (stereo unspecified): the toxic deaths turned out to be 2 count with Mus musculus [1] and 3 count in the experiment on Mus musculus [3].

As for `CC(N/N=C(\S)N(C)C)c1nccc2ccccc12` (stereo unspecified), the toxic deaths in the experiment with Mus musculus [1] is 5 count; in the experiment with Mus musculus [2], 1 count.

For `CC(N/N=C(\S)N1CCCC1)c1nccc2ccccc12` (stereo unspecified), the values for the toxic deaths in the experiment with Mus musculus [1] and in the experiment with Mus musculus [3] were 4 count and 2 count, respectively.

With `C/C(=N\N=C(/S)N(C)C1CCCCC1)c1nccc2ccccc12`, the toxic deaths in the experiment with Mus musculus [1] is 5 count; in the experiment with Mus musculus [2], 1 count.
